Measurements published in patent US11807693B2 (priority 2014, dated 2023).
pEC50: −log10 of the molar value. Starred links: 1 amine or outer side, 2 acyl side, 3 side chain; linkers in the order of their positions; H or OH if unused. Non-standard residues stand in square brackets, D forms with d. Residues, ends and D or L forms follow the SMILES beside them. ξ: configuration not given here. *: point of attachment. Oic = O=C(O)[C@@H]1C[C@@H]2CCCC[C@@H]2N1; Phe(4-Cl) = N[C@@H](Cc1ccc(Cl)cc1)C(=O)O; γGlu = O=C(O)[C@H](CCC(=O)[*:2])N[*:1]; NMeR = CN[C@@H](CCCNC(=N)N)C(=O)O; Palmitoyl = CCCCCCCCCCCCCCCC(=O)*; Tridecanoyl = CCCCCCCCCCCCC(=O)*; hArg = N=C(N)NCCCC[C@H](N)C(=O)O; Cha = N[C@@H](CC1CCCCC1)C(=O)O; αMeP = C[C@@]1(C(=O)O)CCCN1; β3hV = CC(C)[C@H](N)CC(=O)O; Pip = O=C(O)[C@@H]1CCCCN1; Nle = CCCC[C@H](N)C(=O)O; ξαMeP = CC1(C(=O)O)CCCN1; ξβ3hV = CC(C)C(N)CC(=O)O; AEEA = NCCOCCOCC(=O)O; Aib = CC(C)(N)C(=O)O; Inp = O=C(O)C1CCNCC1

What was measured:
[1] = In vitro stability in rat plasma; type: in vitro ADME
How it was run: (§1)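 Incubations: 5 μM apelin peptide, 37° C., 4 hr, in rat plasma, liver or kidney homogenate. Read-out via high resolution LC-MS after MeOH/internal standard precipitation and centrifugation.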

[2] = In vitro stability in rat kidney homogenate; type: in vitro ADME; conditions: rat, tissue homogenate
How it was run: as §1

[3] = biological target: T1, rat APJ receptor (Rattus norvegicus, UniProt Q9JHG3); assay: [35S] GTPγS assay, rat APJ receptor; type: biochemical; conditions: Table 16, read-out: EC50 Rat APJ Receptor
T1 construct: expressed in transfected cells
T1 sequence (Q9JHG3 1-377): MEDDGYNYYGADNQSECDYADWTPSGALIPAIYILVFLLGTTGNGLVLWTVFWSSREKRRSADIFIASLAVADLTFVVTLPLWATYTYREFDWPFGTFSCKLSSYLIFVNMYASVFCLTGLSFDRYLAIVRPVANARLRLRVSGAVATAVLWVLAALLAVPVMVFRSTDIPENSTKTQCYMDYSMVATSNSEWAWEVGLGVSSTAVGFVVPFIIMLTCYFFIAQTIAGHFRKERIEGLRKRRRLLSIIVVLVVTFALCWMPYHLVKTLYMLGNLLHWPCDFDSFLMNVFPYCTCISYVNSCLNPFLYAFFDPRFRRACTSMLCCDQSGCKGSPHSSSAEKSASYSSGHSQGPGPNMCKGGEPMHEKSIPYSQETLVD
Description: The membranes were incubated with modified peptides in the assay buffer. […] Bound [^35S] GTPγS was separated from free radiolabel by filtration. The filter bound radioactivity was determined by liquid scintillation counting.

[4] = In vitro stability in rat liver homogenate; type: in vitro ADME; conditions: tissue homogenate
How it was run: as §1

Compound	remaining at 4 h, 5 μM [1] [%]	remaining at 4 h, 5 μM [2] [%]	pEC50 [3]	remaining at 4 h, 5 μM [4] [%]	Stability at 4 hours (% Remaining) Plasma ([1]; 4 h, 5 μM) [% Remaining]	Stability at 4 hours (% Remaining) Kidney ([2]; 4 h, 5 μM) [% Remaining]	Stability at 4 hours (% Remaining) Liver ([4]; 4 h, 5 μM) [% Remaining]
CCCCCCCCCCCCC(=O)N[C@@H](CCC(=O)NCCOCCOCC(=O)NCCOCCOCC(=O)N[C@@H](CCCNC(=N)N)C(=O)N[C@@H](CCC(N)=O)C(=O)N[C@@H](CCCC)C(=O)N1CCC[C@H]1C(=O)N[C@@H](CCCCNC(=N)N)C(=O)N[C@@H](CC1CCCCC1)C(=O)N[C@@H](CO)C(=O)N[C@@H](C)C(=O)N[C@@H](CCCCN)C(=O)NCC(=O)N1CCCC[C@H]1C(=O)N[C@@H](CCCC)C(=O)N1CCC[C@H]1C(=O)N[C@@H](Cc1ccc(Cl)cc1)C(=O)O)C(=O)O [compound 564] ({Tridecanoyl-γGlu-AEEA-AEEA}-RQ[Nle]P[hArg][Cha]SAKG[Pip][Nle]P[Phe(4-Cl)]-OH)	> 90	< 1	8.83	2	–	–	–
CCCCCCCCCCCCC(=O)N[C@@H](CCC(=O)NCCOCCOCC(=O)NCCOCCOCC(=O)N[C@H](CCC(N)=O)C(=O)N[C@@H](CCCNC(=N)N)C(=O)N1CCC[C@@]1(C)C(=O)N[C@@H](CCCCNC(=N)N)C(=O)N[C@H](CC(=O)N[C@@H](CO)C(=O)N[C@@H](Cc1c[nH]cn1)C(=O)N[C@@H](CCCCN)C(=O)NCC(=O)N1[C@H](C(=O)N[C@@H](CCCC)C(=O)N2CCC[C@@]2(C)C(=O)N[C@@H](Cc2ccc(Cl)cc2)C(=O)O)C[C@@H]2CCCC[C@@H]21)C(C)C)C(=O)O [compound 502] ({Tridecanoyl-γGlu-AEEA-AEEA}-[dQ]R[αMeP][hArg][β3hV]SHKG[Oic][Nle][αMeP][Phe(4-Cl)]-OH)	> 90	19	–	34	–	–	–
CCCCCCCCCCCCC(=O)N[C@@H](CCC(=O)NCCOCCOCC(=O)NCCOCCOCC(=O)N[C@H](CCC(N)=O)C(=O)N[C@@H](CCCNC(=N)N)C(=O)N1CCCC1(C)C(=O)N[C@@H](CCCCNC(=N)N)C(=O)NC(CC(=O)N[C@@H](CO)C(=O)N[C@@H](Cc1c[nH]cn1)C(=O)N[C@@H](CCCCN)C(=O)NCC(=O)N1CCCC1(C)C(=O)N[C@@H](CCCC)C(=O)N1CCCC1(C)C(=O)N[C@@H](Cc1ccc(Cl)cc1)C(=O)O)C(C)C)C(=O)O (stereo partly shown) [compound 504]	> 90	4	–	11	–	–	–
CCCCCCCCCCCCC(=O)N[C@@H](CCC(=O)NCCOCCOCC(=O)NCCOCCOCC(=O)N[C@@H](CCCNC(=N)N)C(=O)N[C@@H](CCC(N)=O)C(=O)N[C@@H](CCCC)C(=O)N1CCC[C@H]1C(=O)N[C@@H](CCCCNC(=N)N)C(=O)N[C@@H](CC1CCCCC1)C(=O)N[C@@H](CO)C(=O)N[C@@H](Cc1c[nH]cn1)C(=O)N[C@@H](CCCCN)C(=O)NCC(=O)N1[C@H](C(=O)N[C@@H](CCCC)C(=O)N2CCC[C@H]2C(=O)N[C@@H](Cc2ccc(Cl)cc2)C(=O)O)C[C@@H]2CCCC[C@@H]21)C(=O)O [compound 339] ({Tridecanoyl-γGlu-AEEA-AEEA}-RQ[Nle]P[hArg][Cha]SHKG[Oic][Nle]P[Phe(4-Cl)]-OH)	93	2	–	13	–	–	–
110 (QRPRLSHKGPMPF; source: /note="N-term MerPr(10KmPEGacetamide)") [compound 110]	–	–	–	–	36	27	61
CCCCCCCCCCCCC(=O)N[C@@H](CCC(=O)NCCOCCOCC(=O)NCCOCCOCC(=O)N[C@H](CCC(N)=O)C(=O)N[C@@H](CCCNC(=N)N)C(=O)N1CCC[C@@]1(C)C(=O)N[C@@H](CCCCNC(=N)N)C(=O)N[C@H](CC(=O)N[C@@H](CO)C(=O)N[C@@H](Cc1c[nH]cn1)C(=O)N[C@@H](CCCCN)C(=O)NCC(=O)N1CCCC[C@H]1C(=O)N[C@@H](CCCC)C(=O)N1CCC[C@@]1(C)C(=O)N[C@@H](Cc1ccc(Cl)cc1)C(=O)O)C(C)C)C(=O)O [compound 503] ({Tridecanoyl-γGlu-AEEA-AEEA}-[dQ]R[αMeP][hArg][β3hV]SHKG[Pip][Nle][αMeP][Phe(4-Cl)]-OH)	85	2	–	7	–	–	–
CCCCCCCCCCCCC(=O)N[C@@H](CCC(=O)NCCOCCOCC(=O)NCCOCCOCC(=O)N[C@@H](CCCCNC(=N)N)C(=O)N[C@@H](CCC(N)=O)C(=O)N[C@@H](CCCCNC(=N)N)C(=O)N1CCC[C@H]1C(=O)N[C@@H](CCCCNC(=N)N)C(=O)N[C@@H](CC1CCCCC1)C(=O)N[C@@H](CO)C(=O)N[C@@H](Cc1c[nH]cn1)C(=O)N[C@@H](CCCCN)C(=O)NCC(=O)N1[C@H](C(=O)N[C@@H](CCCC)C(=O)N2CCC[C@H]2C(=O)N[C@@H](Cc2ccc(Cl)cc2)C(=O)O)C[C@@H]2CCCC[C@@H]21)C(=O)O [compound 490] ({Tridecanoyl-γGlu-AEEA-AEEA}-[hArg]Q[hArg]P[hArg][Cha]SHKG[Oic][Nle]P[Phe(4-Cl)]-OH)	88	< 1	–	9	–	–	–

Second part, led by results:

remaining at 4 h, 5 μM [1] [%]	remaining at 4 h, 5 μM [2] [%]	pEC50 [3]	remaining at 4 h, 5 μM [4] [%]	Compound	Stability at 4 hours (% Remaining) Plasma ([1]; 4 h, 5 μM) [% Remaining]	Stability at 4 hours (% Remaining) Kidney ([2]; 4 h, 5 μM) [% Remaining]	Stability at 4 hours (% Remaining) Liver ([4]; 4 h, 5 μM) [% Remaining]
2	2	–	5	CCCCCCCCCCCCC(=O)N[C@@H](CCC(=O)NCCOCCOCC(=O)NCCOCCOCC(=O)N[C@@H](CCC(N)=O)C(=O)N[C@@H](CCCNC(=N)N)C(=O)N1CCC[C@H]1C(=O)N(C)[C@@H](CCCNC(=N)N)C(=O)N[C@H](CC(=O)N[C@@H](CO)C(=O)N[C@@H](Cc1c[nH]cn1)C(=O)N[C@@H](CCCCN)C(=O)NCC(=O)N1[C@H](C(=O)N[C@@H](CCCC)C(=O)N2CCC[C@H]2C(=O)N[C@@H](Cc2ccc(Cl)cc2)C(=O)O)C[C@@H]2CCCC[C@@H]21)C(C)C)C(=O)O [compound 391] ({Tridecanoyl-γGlu-AEEA-AEEA}-QRP[NMeR][β3hV]SHKG[Oic][Nle]P[Phe(4-Cl)]-OH)	–	–	–
> 90	34	–	64	CCCCCCCCCCCCCCCC(=O)N[C@@H](CCC(=O)NCCOCCOCC(=O)NCCOCCOCC(=O)N[C@H](CCC(N)=O)C(=O)N[C@@H](CCCNC(=N)N)C(=O)N1CCC[C@H]1C(=O)N(C)[C@@H](CCCNC(=N)N)C(=O)N[C@@H](CC1CCCCC1)C(=O)N[C@@H](CO)C(=O)N[C@@H](Cc1c[nH]cn1)C(=O)N[C@@H](CCCCN)C(=O)NCC(=O)N1[C@H](C(=O)N[C@@H](CCCC)C(=O)N2CCC(C(=O)N[C@@H](Cc3ccc(Cl)cc3)C(=O)O)CC2)C[C@@H]2CCCC[C@@H]21)C(=O)O [compound 587] ({Palmitoyl-γGlu-AEEA-AEEA}-[dQ]RP[NMeR][Cha]SHKG[Oic][Nle][Inp][Phe(4-Cl)]-OH)	–	–	–
73	< 1	–	82	CCCCCCCCCCCCC(=O)N[C@@H](CCC(=O)NCCOCCOCC(=O)NCCOCCOCC(=O)N[C@@H](CCC(N)=O)C(=O)N[C@@H](CCCNC(=N)N)C(=O)N1CCCC1(C)C(=O)N[C@@H](CCCCNC(=N)N)C(=O)NC(CC(=O)N[C@@H](CO)C(=O)N[C@@H](Cc1c[nH]cn1)C(=O)N[C@@H](CCCCN)C(=O)NCC(=O)N1[C@H](C(=O)N[C@@H](CCCC)C(=O)N2CCC[C@H]2C(=O)N[C@@H](Cc2ccc(Cl)cc2)C(=O)O)C[C@@H]2CCCC[C@@H]21)C(C)C)C(=O)O (stereo partly drawn) [compound 392] ({Tridecanoyl-γGlu-AEEA-AEEA}-QR[ξαMeP][hArg][ξβ3hV]SHKG[Oic][Nle]P[Phe(4-Cl)]-OH)	–	–	–
73	1	–	4	CCCCCCCCCCCCC(=O)N[C@@H](CCC(=O)NCCOCCOCC(=O)NCCOCCOCC(=O)N[C@@H](CCC(N)=O)C(=O)N[C@@H](CCCNC(=N)N)C(=O)N1CCC[C@H]1C(=O)N(C)[C@@H](CCCNC(=N)N)C(=O)N[C@@](C)(CC(C)C)C(=O)N[C@@H](CO)C(=O)N[C@@H](Cc1c[nH]cn1)C(=O)N[C@@H](CCCCN)C(=O)NCC(=O)N1CCC[C@@]1(C)C(=O)N[C@@H](CCCC)C(=O)N1CCC[C@H]1C(=O)N[C@@H](Cc1ccc(Cl)cc1)C(=O)O)C(=O)O [compound 387]	–	–	–
> 90	23	–	> 90	CCCCCCCCCCCCC(=O)N[C@@H](CCC(=O)NCCOCCOCC(=O)NCCOCCOCC(=O)N[C@H](CCC(N)=O)C(=O)N[C@@H](CCCNC(=N)N)C(=O)N1CCC[C@H]1C(=O)N(C)[C@@H](CCCNC(=N)N)C(=O)N[C@@H](CC1CCCCC1)C(=O)N[C@@H](CO)C(=O)N[C@@H](Cc1c[nH]cn1)C(=O)N[C@@H](CCCCN)C(=O)NCC(=O)N1CCC[C@@]1(C)C(=O)N[C@@H](CCCC)C(=O)NC(C)(C)C(=O)N[C@@H](Cc1ccc(Cl)cc1)C(=O)O)C(=O)O [compound 498] ({Tridecanoyl-γGlu-AEEA-AEEA}-[dQ]RP[NMeR][Cha]SHKG[αMeP][Nle][Aib][Phe(4-Cl)]-OH)	–	–	–
89	< 1	–	3	CCCCCCCCCCCCC(=O)N[C@@H](CCC(=O)N[C@@H](CCC(=O)NCCOCCOCC(=O)N[C@H](CCC(N)=O)C(=O)N[C@@H](CCCNC(=N)N)C(=O)N1CCC[C@H]1C(=O)N(C)[C@@H](CCCNC(=N)N)C(=O)N[C@@H](CC1CCCCC1)C(=O)N[C@@H](CO)C(=O)N[C@@H](Cc1c[nH]cn1)C(=O)N[C@@H](CCCCN)C(=O)NCC(=O)N1[C@H](C(=O)N[C@@H](CCCC)C(=O)NC(C)(C)C(=O)N[C@@H](Cc2ccc(Cl)cc2)C(=O)O)C[C@@H]2CCCC[C@@H]21)C(=O)O)C(=O)O [compound 535] ({Tridecanoyl-γGlu-γGlu-AEEA}-[dQ]RP[NMeR][Cha]SHKG[Oic][Nle][Aib][Phe(4-Cl)]-OH)	–	–	–
